Reference: ChEMBL document CHEMBL4308894, “Synthesis and evaluation of biological activity for dual-acting antibiotics on the basis of azithromycin and glycopeptides” (Bioorg Med Chem Lett, 2019)
Values after ≈ are worked out from the molar mass of the structure shown. Active and inactive are the calls of the source. No cut-off for these calls is given here.

What was measured:
Staphylococcus aureus [1] = experiment: Antibacterial activity against Staphylococcus aureus ATCC 25923 by micro dilution method; assay type: functional
[2] = tested on: Staphylococcus epidermidis; experiment: Antibacterial activity against Staphylococcus epidermidis isolate 533 by micro dilution method; assay type: functional
Staphylococcus aureus [3] = experiment: Antibacterial activity against Staphylococcus aureus isolate 10 by micro dilution method; assay type: functional
Staphylococcus aureus [4] = experiment: Antibacterial activity against Staphylococcus aureus isolate 3797 by micro dilution method; assay type: functional
Staphylococcus aureus [5] = experiment: Antibacterial activity against Staphylococcus aureus isolate 3798 by micro dilution method; assay type: functional
Staphylococcus aureus [6] = experiment: Antibacterial activity against Staphylococcus aureus isolate 1025 by micro dilution method; assay type: functional
Enterococcus faecium [7] = experiment: Antibacterial activity against Enterococcus faecium isolate 568 by micro dilution method; assay type: functional
Enterococcus faecium [8] = experiment: Antibacterial activity against Enterococcus faecium isolate 569 by micro dilution method; assay type: functional
Enterococcus faecalis = experiment: Antibacterial activity against Enterococcus faecalis isolate 560 by micro dilution method; assay type: functional
Streptococcus pneumoniae = experiment: Antibacterial activity against Streptococcus pneumoniae ATCC 49619 by micro dilution method; assay type: functional
Enterococcus gallinarum = experiment: Antibacterial activity against Streptococcus gallinarum ATCC 35038 by micro dilution method; assay type: functional
Streptococcus agalactiae = experiment: Antibacterial activity against Streptococcus agalactiae isolate 52 by micro dilution method; assay type: functional
Escherichia coli [9] = experiment: Antibacterial activity against Escherichia coli ATCC 25922 by micro dilution method; assay type: functional
Salmonella typhimurium = experiment: Antibacterial activity against Salmonella choleraesuis ATCC 14028 by micro dilution method; assay type: functional, Salmonella enterica subsp. enterica serovar Typhimurium; details: Salmonella enterica
Klebsiella pneumoniae = experiment: Antibacterial activity against Klebsiella pneumoniae ATCC 13883 by micro dilution method; assay type: functional
Escherichia coli [10] = experiment: Induction of translation arrest in tolC-deficient Escherichia coli harboring pRFPCER-TrpL2A assessed as increase in pRFPCER-TrpL2A reporter activity at 10 mg/ml after overnight incubation by dual fluorescent-reporter gene assay; assay type: functional, organism-based
Staphylococcus aureus [11] = experiment: Antibacterial activity against Staphylococcus aureus isolate 10 infected in iv dosed C57BL/6 mouse measured for 10 days; assay type: functional; details: isolate 10, iv, 240 h
Staphylococcus aureus [12] = experiment: Antibacterial activity against Staphylococcus aureus isolate 10 infected in C57BL/6 mouse assessed as survival rate at 2.5 mg/kg, iv measured for 10 days (reference value: 0%); assay type: functional; details: isolate 10, iv, 240 h
Staphylococcus aureus [13] = experiment: Antibacterial activity against Staphylococcus aureus isolate 10 infected in C57BL/6 mouse assessed as survival rate at 3.5 mg/kg, iv measured for 10 days (reference value: 0%); assay type: functional; details: isolate 10, iv, 240 h
Staphylococcus aureus [14] = experiment: Antibacterial activity against Staphylococcus aureus isolate 10 infected in C57BL/6 mouse assessed as survival rate at 4.5 mg/kg, iv measured for 10 days (reference value: 0%); assay type: functional; details: isolate 10, iv, 240 h
Staphylococcus aureus [15] = experiment: Antibacterial activity against Staphylococcus aureus isolate 10 infected in C57BL/6 mouse assessed as survival rate at 5.5 mg/kg, iv measured for 10 days (reference value: 0%); assay type: functional; details: isolate 10, iv, 240 h
Staphylococcus aureus [16] = experiment: Antibacterial activity against Staphylococcus aureus isolate 10 infected in C57BL/6 mouse assessed as survival rate at 6.5 mg/kg, iv measured for 10 days (reference value: 0%); assay type: functional; details: isolate 10, iv, 240 h
Staphylococcus aureus [17] = experiment: Antibacterial activity against Staphylococcus aureus isolate 10 infected in C57BL/6 mouse assessed as survival rate at 7.5 mg/kg, iv measured for 10 days (reference value: 0%); assay type: functional; details: isolate 10, iv, 240 h
[18] = Elimination half life in patient with normal creatinine clearance; assay type: ADME; details: human, in vivo; read-out: beta t1/2
[19] = Half life in human serum; assay type: ADME, cell-free

SMILES	MIC (Staphylococcus aureus [1]) [µg/mL]	MIC [2] [µg/mL]	MIC (Staphylococcus aureus [3]) [µg/mL]	MIC (Staphylococcus aureus [4]) [µg/mL]	MIC (Staphylococcus aureus [5]) [µg/mL]	MIC (Staphylococcus aureus [6]) [µg/mL]	MIC (Enterococcus faecium [7]) [µg/mL]	MIC (Enterococcus faecium [8]) [µg/mL]	MIC (Enterococcus faecalis) [µg/mL]	MIC (Streptococcus pneumoniae) [µg/mL]	MIC (Enterococcus gallinarum) [µg/mL]	MIC (Streptococcus agalactiae) [µg/mL]	MIC (Escherichia coli [9]) [µg/mL]	MIC (Salmonella typhimurium) [µg/mL]	MIC (Klebsiella pneumoniae) [µg/mL]	Activity (Escherichia coli [10])	other results
CC[C@H]1OC(=O)[C@H](C)[C@@H](O[C@H]2C[C@@](C)(OC)[C@@H](OC(=O)NCCCNC(=O)[C@H]3NC(=O)[C@H]4NC(=O)[C@H](NC(=O)[C@@H]5NC(=O)[C@H](CC(N)=O)NC(=O)[C@H](NC(=O)[C@@H](CC(C)C)NC)[C@H](O)c6ccc(c(Cl)c6)Oc6cc5cc(c6O[C@@H]5O[C@H](CO)[C@@H](O)[C@H](O)[C@H]5O[C@H]5C[C@](C)(N)[C@H](O)[C@H](C)O5)Oc5ccc(cc5Cl)[C@H]4O)c4ccc(O)c(c4)-c4c(O)cc(O)cc43)[C@H](C)O2)[C@H](C)[C@@H](O[C@@H]2O[C@H](C)C[C@H](N(C)C)[C@H]2O)[C@](C)(O)C[C@@H](C)CN(C)[C@H](C)[C@H]2OC(=O)O[C@]21C	2 (≈ 0.867 µM)	2 (≈ 0.867 µM)	1 (≈ 0.434 µM)	4 (≈ 1.73 µM)	> 32	> 32	1 (≈ 0.434 µM)	> 32	32 (≈ 13.9 µM)	1 (≈ 0.434 µM)	4 (≈ 1.73 µM)	32 (≈ 13.9 µM)	> 32	> 32	> 32	inactive	
CN[C@H](CC(C)C)C(=O)N[C@H]1C(=O)N[C@@H](CC(N)=O)C(=O)N[C@H]2C(=O)N[C@H]3C(=O)N[C@H](C(=O)N[C@H](C(=O)O)c4cc(O)cc(O)c4-c4cc3ccc4O)[C@H](O)c3ccc(c(Cl)c3)Oc3cc2cc(c3O[C@@H]2O[C@H](CO)[C@@H](O)[C@H](O)[C@H]2O[C@H]2C[C@](C)(N)[C@H](O)[C@H](C)O2)Oc2ccc(cc2Cl)[C@H]1O [VANCOMYCIN]		0.5 (≈ 0.345 µM)	0.25 (≈ 0.173 µM)		8 (≈ 5.52 µM)	8 (≈ 5.52 µM)		> 32	> 32	2 (≈ 1.38 µM)	4 (≈ 2.76 µM)	8 (≈ 5.52 µM)	> 32	> 32	> 32		ED50 (Staphylococcus aureus [11]): 4.2 mg/kg; survival at 2.5 mg/kg (Staphylococcus aureus [12]): 30%; survival at 3.5 mg/kg (Staphylococcus aureus [13]): 40%; survival at 4.5 mg/kg (Staphylococcus aureus [14]): 50%; survival at 5.5 mg/kg (Staphylococcus aureus [15]): 70%; survival at 6.5 mg/kg (Staphylococcus aureus [16]): 90%; survival at 7.5 mg/kg (Staphylococcus aureus [17]): 100%; half-life [18]: 6 to 12 h
CC[C@H]1OC(=O)[C@H](C)[C@@H](O[C@H]2C[C@@](C)(OC)[C@@H](OC(=O)NCCNC(=O)[C@H]3NC(=O)[C@H]4NC(=O)[C@H](NC(=O)[C@@H]5NC(=O)[C@H](CC(N)=O)NC(=O)[C@H](NC(=O)[C@@H](CC(C)C)NC)[C@H](O)c6ccc(c(Cl)c6)Oc6cc5cc(c6O[C@@H]5O[C@H](CO)[C@@H](O)[C@H](O)[C@H]5O[C@H]5C[C@](C)(N)[C@H](O)[C@H](C)O5)Oc5ccc(cc5Cl)[C@H]4O)c4ccc(O)c(c4)-c4c(O)cc(O)cc43)[C@H](C)O2)[C@H](C)[C@@H](O[C@@H]2O[C@H](C)C[C@H](N(C)C)[C@H]2O)[C@](C)(O)C[C@@H](C)CN(C)[C@H](C)[C@H]2OC(=O)O[C@]21C	1 (≈ 0.436 µM)	1 (≈ 0.436 µM)	1 (≈ 0.436 µM)	4 (≈ 1.74 µM)	> 32	> 32	1 (≈ 0.436 µM)	> 32	32 (≈ 14 µM)	1 (≈ 0.436 µM)	4 (≈ 1.74 µM)	32 (≈ 14 µM)	> 32	> 32	> 32	Active	
CC[C@H]1OC(=O)[C@H](C)[C@@H](O[C@H]2C[C@@](C)(OC)[C@@H](OC(=O)NCCNC(=O)[C@H]3NC(=O)[C@H]4NC(=O)[C@H](NC(=O)[C@@H]5NC(=O)C6NC(=O)[C@@H](Cc7ccc(c(Cl)c7)Oc7cc5cc(c7O)Oc5ccc(cc5Cl)[C@H]4O)NC(=O)[C@H](N)c4ccc(O)c(c4)Oc4cc(O)cc6c4)c4ccc(O)c(c4)-c4c(O)cc(O)cc43)[C@H](C)O2)[C@H](C)[C@@H](O[C@@H]2O[C@H](C)C[C@H](N(C)C)[C@H]2O)[C@](C)(O)C[C@@H](C)CN(C)[C@H](C)[C@H]2OC(=O)O[C@]21C	1 (≈ 0.49 µM)	0.5 (≈ 0.245 µM)	0.06 (≈ 0.0294 µM)	1 (≈ 0.49 µM)	32 (≈ 15.7 µM)	> 32	0.13 (≈ 0.0637 µM)	8 (≈ 3.92 µM)	16 (≈ 7.84 µM)	0.5 (≈ 0.245 µM)	2 (≈ 0.979 µM)	32 (≈ 15.7 µM)	> 32	> 32	> 32	inactive	
CC[C@H]1OC(=O)[C@H](C)[C@@H](O[C@H]2C[C@@](C)(OC)[C@@H](O)[C@H](C)O2)[C@H](C)[C@@H](O[C@@H]2O[C@H](C)C[C@H](N(C)C)[C@H]2O)[C@](C)(O)C[C@@H](C)CN(C)[C@H](C)[C@@H](O)[C@]1(C)O [AZITHROMYCIN]	1 (≈ 1.34 µM)	2 (≈ 2.67 µM)	1 (≈ 1.34 µM)	> 32	> 32	16 (≈ 21.4 µM)	8 (≈ 10.7 µM)	8 (≈ 10.7 µM)	> 32	8 (≈ 10.7 µM)	4 (≈ 5.34 µM)	> 32	8 (≈ 10.7 µM)	16 (≈ 21.4 µM)	16 (≈ 21.4 µM)	Active	half-life [19]: 68 h
CC[C@H]1OC(=O)[C@H](C)[C@@H](O[C@H]2C[C@@](C)(OC)[C@@H](OC(=O)NCCCNC(=O)[C@H]3NC(=O)[C@H]4NC(=O)[C@H](NC(=O)[C@@H]5NC(=O)[C@H](CC(N)=O)NC(=O)[C@H](NC(=O)[C@@H](CC(C)C)NC)[C@H](O)c6ccc(c(Cl)c6)Oc6cc5cc(c6O[C@@H]5O[C@H](CO)[C@@H](O)[C@H](O)[C@H]5O[C@H]5C[C@](C)(N)[C@H](O)[C@H](C)O5)Oc5ccc(cc5Cl)[C@H]4O[C@H]4C[C@](C)(N)[C@@H](O)[C@H](C)O4)c4ccc(O)c(c4)-c4c(O)cc(O)cc43)[C@H](C)O2)[C@H](C)[C@@H](O[C@@H]2O[C@H](C)C[C@H](N(C)C)[C@H]2O)[C@](C)(O)C[C@@H](C)CN(C)[C@H](C)[C@H]2OC(=O)O[C@]21C	1 (≈ 0.408 µM)	1 (≈ 0.408 µM)	0.06 (≈ 0.0245 µM)	4 (≈ 1.63 µM)	4 (≈ 1.63 µM)	16 (≈ 6.53 µM)	0.5 (≈ 0.204 µM)	4 (≈ 1.63 µM)	8 (≈ 3.27 µM)	1 (≈ 0.408 µM)	2 (≈ 0.816 µM)	4 (≈ 1.63 µM)	> 32	> 32	> 32	inactive	
CC[C@H]1OC(=O)[C@H](C)[C@@H](O[C@H]2C[C@@](C)(OC)[C@@H](O)[C@H](C)O2)[C@H](C)[C@@H](O[C@@H]2O[C@H](C)C[C@H](N(C)C)[C@H]2O)[C@](C)(O)C[C@@H](C)C(=O)[C@H](C)[C@@H](O)[C@]1(C)O																Active	
CC[C@H]1OC(=O)[C@H](C)[C@@H](O[C@H]2C[C@@](C)(OC)[C@@H](OC(=O)NCCNC(=O)[C@H]3NC(=O)[C@H]4NC(=O)[C@H](NC(=O)[C@@H]5NC(=O)[C@H](CC(N)=O)NC(=O)[C@H](NC(=O)[C@@H](CC(C)C)NC)[C@H](O)c6ccc(c(Cl)c6)Oc6cc5cc(c6O[C@@H]5O[C@H](CO)[C@@H](O)[C@H](O)[C@H]5O[C@H]5C[C@](C)(N)[C@H](O)[C@H](C)O5)Oc5ccc(cc5Cl)[C@H]4O[C@H]4C[C@](C)(N)[C@@H](O)[C@H](C)O4)c4ccc(O)c(c4)-c4c(O)cc(O)cc43)[C@H](C)O2)[C@H](C)[C@@H](O[C@@H]2O[C@H](C)C[C@H](N(C)C)[C@H]2O)[C@](C)(O)C[C@@H](C)CN(C)[C@H](C)[C@H]2OC(=O)O[C@]21C	1 (≈ 0.411 µM)	2 (≈ 0.821 µM)	0.06 (≈ 0.0246 µM)	4 (≈ 1.64 µM)	8 (≈ 3.28 µM)	8 (≈ 3.28 µM)	1 (≈ 0.411 µM)	8 (≈ 3.28 µM)	16 (≈ 6.57 µM)	1 (≈ 0.411 µM)	4 (≈ 1.64 µM)	8 (≈ 3.28 µM)	> 32	> 32	> 32	Active	ED50 (Staphylococcus aureus [11]): 4.7 mg/kg; survival at 2.5 mg/kg (Staphylococcus aureus [12]): 30%; survival at 3.5 mg/kg (Staphylococcus aureus [13]): 20%; survival at 4.5 mg/kg (Staphylococcus aureus [14]): 40%; survival at 5.5 mg/kg (Staphylococcus aureus [15]): 70%; survival at 6.5 mg/kg (Staphylococcus aureus [16]): 70%; survival at 7.5 mg/kg (Staphylococcus aureus [17]): 80%
